Test results taken from paper PMC8270334, “Design, Sustainable Synthesis and Biological Evaluation of a Novel Dual α2A/5-HT7 Receptor Antagonist with Antidepressant-Like Properties” (Molecules, 2021).

Key:
α1-AR = test: radioligand binding, displacement of [3H]prazosin from α1-adrenoreceptors; conditions: rat cerebral cortex, ± SEM
Protocol: The brains were homogenized in 20 volumes of ice-cold 50 mM Tris–HCl buffer (pH 7.6) and centrifuged at 20,000 × g for 20 min (0–4 °C). The cell pellet was resuspended in the Tris–HCl buffer and centrifuged again. Radioligand binding assays were performed in plates (MultiScreen/Millipore). […] The incubation was terminated by rapid filtration over glass fibre filters (Whatman GF/C) using a vacuum manifold (Millipore). The filters were then washed twice with the assay buffer and placed in scintillation vials with a liquid scintillation cocktail. Radioactivity was measured in a WALLAC 1409 DSA liquid scintillation counter. All assays were made in duplicate.

α2A-adrenergic receptor = biological target: T1, α2A-adrenergic receptor (Homo sapiens, UniProt P08913); test: intrinsic activity (antagonist) assay, Tango ADRA2A-bla U2OS DA cells, FRET; type: cell-based; conditions: for Kb: antagonist, ADRA2A-bla U2OS DA cells, ± SEM, two independent experiments; for functional selectivity for α2A-AR over α2B-AR subtype: from Kb values α2A vs α2B
T1 construct: host or cells: U2OS (Tango ADRA2A-bla U2OS DA)
T1 sequence (P08913 1-465): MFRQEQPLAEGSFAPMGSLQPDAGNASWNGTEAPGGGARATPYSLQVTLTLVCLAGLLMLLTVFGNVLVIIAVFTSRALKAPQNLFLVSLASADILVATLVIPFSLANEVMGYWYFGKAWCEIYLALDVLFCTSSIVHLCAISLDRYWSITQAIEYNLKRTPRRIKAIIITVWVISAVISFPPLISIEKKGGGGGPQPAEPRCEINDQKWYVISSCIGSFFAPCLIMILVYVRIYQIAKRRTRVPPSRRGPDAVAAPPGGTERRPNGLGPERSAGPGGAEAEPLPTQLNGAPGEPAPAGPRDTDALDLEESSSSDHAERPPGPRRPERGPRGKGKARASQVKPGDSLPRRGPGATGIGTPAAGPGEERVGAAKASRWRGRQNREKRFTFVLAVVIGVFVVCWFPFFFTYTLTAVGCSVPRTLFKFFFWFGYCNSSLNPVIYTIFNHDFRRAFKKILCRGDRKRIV
Protocol: Intrinsic activity assays for α2A-adrenergic receptor were performed according to the instructions of the manufacturer of the assay kit containing the ready to use cells with stable expression of the α2A-adrenoceptor (Invitrogen, Life Technologies, Waltham, MA, USA). Tango™ ADRA2A-bla U2OS DA cells (10,000 cells/well) were plated in a 384-well format and incubated for 20 h. […] Cells were then loaded with LiveBLAzer™-FRET B/G substrate for 2 h.

Row | SMILES | Ki (α1-AR) [nM] | Kb (α2A-adrenergic receptor) [nM] | functional selectivity for α2A-AR over α2B-AR subtype (α2A-adrenergic receptor)
1 | CC1(C)Cc2cccc(OCCN3CCC(NS(=O)(=O)c4ccc(F)cc4)CC3)c2O1 [Compound 6, 4-Fluoro-N-{1-[2-(2,2-dimethyl-2,3-dihydrobenzofuran-7-yloxy)ethyl]piperidin-4-yl} benzenesulfonamide] | 761 ± 86 | 12 ± 4 | up to seven
2 | CC1(C)Cc2cccc(OCCN3CCC(NS(=O)(=O)c4cc(Cl)ccc4F)CC3)c2O1 [Compound 8, 5-Chloro-2-fluoro-N-{1-[2-(2,2-dimethyl-2,3-dihydrobenzofuran-7-yloxy)ethyl]piperidin-4-yl}benzenesulfonamide] | 1260 ± 101 | 40 ± 11 | four
3 | CC1(C)Cc2cccc(OCCN3CCC(NS(=O)(=O)c4cncc5ccccc45)CC3)c2O1 [Compound 13, 4-Isoquinoline-N-{1-[2-(2,2-dimethyl-2,3-dihydrobenzofuran-7-yloxy)ethyl]piperidin-4-yl}sulfonamide] | 429 ± 66 | 31 ± 8 | did not show any preference
